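All cell lines were grown in 96-well plates and treated with compound for 48 hours. GI50 marks 50% less growth. TGI marks complete inhibition of growth.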
Assays:
Test in all cases: NCI-60 cell line screen, 48 h; in the data active = GI50 below about 0.43 µM; inactive = the rest
786-0 renal = system: 786-0 renal
A498 renal = system: A498 renal
A549 NSCLC = system: A549 NSCLC
ACHN renal = system: ACHN renal
BT-549 breast = system: BT-549 breast
CCRF-CEM leukemia = system: CCRF-CEM leukemia
COLO 205 colon = system: COLO 205 colon
DU-145 prostate = system: DU-145 prostate
EKVX NSCLC = system: EKVX NSCLC
HCC-2998 colon = system: HCC-2998 colon
HCT-15 colon = system: HCT-15 colon
HL-60(TB) leukemia = system: HL-60(TB) leukemia
HOP-62 NSCLC = system: HOP-62 NSCLC
HOP-92 NSCLC = system: HOP-92 NSCLC
HS 578T breast = system: HS 578T breast
HT29 colon = system: HT29 colon
IGROV1 ovarian = system: IGROV1 ovarian
K-562 leukemia = system: K-562 leukemia
KM12 colon = system: KM12 colon
LOX IMVI melanoma = system: LOX IMVI melanoma
M14 melanoma = system: M14 melanoma
MALME-3M melanoma = system: MALME-3M melanoma
MDA-MB-231 breast = system: MDA-MB-231 breast
MOLT-4 leukemia = system: MOLT-4 leukemia
NCI-H226 lung = system: NCI-H226 lung
NCI-H23 lung = system: NCI-H23 lung
NCI-H460 lung = system: NCI-H460 lung
NCI-H522 lung = system: NCI-H522 lung
NCI/ADR-RES ovarian = system: NCI/ADR-RES ovarian
OVCAR-3 ovarian = system: OVCAR-3 ovarian
OVCAR-4 ovarian = system: OVCAR-4 ovarian
OVCAR-5 ovarian = system: OVCAR-5 ovarian
OVCAR-8 ovarian = system: OVCAR-8 ovarian
PC-3 prostate = system: PC-3 prostate
RPMI-8226 leukemia = system: RPMI-8226 leukemia
RXF 393 renal = system: RXF 393 renal
SF-268 CNS = system: SF-268 CNS
SF-295 CNS = system: SF-295 CNS
SF-539 CNS = system: SF-539 CNS
SK-MEL-2 melanoma = system: SK-MEL-2 melanoma
SK-MEL-28 melanoma = system: SK-MEL-28 melanoma
SK-MEL-5 melanoma = system: SK-MEL-5 melanoma
SK-OV-3 ovarian = system: SK-OV-3 ovarian
SN12C renal = system: SN12C renal
SNB-19 CNS = system: SNB-19 CNS
SR leukemia = system: SR leukemia
SW-620 colon = system: SW-620 colon
T-47D breast = system: T-47D breast
TK-10 renal = system: TK-10 renal
U251 CNS = system: U251 CNS
UACC-257 melanoma = system: UACC-257 melanoma
UACC-62 melanoma = system: UACC-62 melanoma
UO-31 renal = system: UO-31 renal
HCT-116 colon = system: HCT-116 colon
MCF7 breast = system: MCF7 breast

COc1cc([C@H](C)c2ccc3ccccc3c2)cc(OC)c1OC
20 µM: TGI (786-0 renal)
44 µM: TGI (UACC-257 melanoma)
28.3 µM: TGI (NCI-H522 lung)
10.9 µM: TGI (RPMI-8226 leukemia)
21.1 µM: TGI (U251 CNS)
> 100 µM: TGI (A549 NSCLC) | TGI (ACHN renal) | TGI (CCRF-CEM leukemia) | TGI (DU-145 prostate) | TGI (EKVX NSCLC) | TGI (HCC-2998 colon) | TGI (HCT-15 colon) | TGI (HOP-62 NSCLC) | TGI (HS 578T breast) | TGI (HT29 colon) | TGI (IGROV1 ovarian) | TGI (K-562 leukemia) | TGI (KM12 colon) | TGI (LOX IMVI melanoma) | TGI (M14 melanoma) | TGI (MALME-3M melanoma) | TGI (MOLT-4 leukemia) | TGI (NCI-H226 lung) | TGI (NCI-H23 lung) | TGI (NCI/ADR-RES ovarian) | TGI (OVCAR-3 ovarian) | TGI (OVCAR-4 ovarian) | TGI (OVCAR-5 ovarian) | TGI (PC-3 prostate) | TGI (RXF 393 renal) | TGI (SF-268 CNS) | TGI (SF-295 CNS) | TGI (SF-539 CNS) | TGI (SK-MEL-28 melanoma) | TGI (SN12C renal) | TGI (SNB-19 CNS) | TGI (SR leukemia) | TGI (SW-620 colon) | TGI (T-47D breast) | TGI (TK-10 renal) | TGI (UACC-62 melanoma) | TGI (UO-31 renal)
65.1 µM: TGI (OVCAR-8 ovarian)
65.4 µM: TGI (SK-MEL-2 melanoma)
53 µM: TGI (HOP-92 NSCLC)
18.4 µM: TGI (BT-549 breast)
0.865 µM: TGI (COLO 205 colon)
11.1 µM: TGI (SK-MEL-5 melanoma)
0.745 µM: TGI (HL-60(TB) leukemia)
61.6 µM: TGI (SK-OV-3 ovarian)
active: GI50 (A498 renal) 0.255 µM | GI50 (CCRF-CEM leukemia) 0.274 µM | GI50 (COLO 205 colon) 0.306 µM | GI50 (HCT-15 colon) 0.311 µM | GI50 (HL-60(TB) leukemia) 0.184 µM | GI50 (HS 578T breast) 0.303 µM | GI50 (HT29 colon) 0.294 µM | GI50 (K-562 leukemia) 0.0411 µM | GI50 (KM12 colon) 0.276 µM | GI50 (M14 melanoma) 0.197 µM | GI50 (NCI-H460 lung) 0.332 µM | GI50 (NCI-H522 lung) 0.376 µM | GI50 (NCI/ADR-RES ovarian) 0.145 µM | GI50 (OVCAR-3 ovarian) 0.272 µM | GI50 (PC-3 prostate) 0.346 µM | GI50 (RPMI-8226 leukemia) 0.325 µM | GI50 (RXF 393 renal) 0.22 µM | GI50 (SF-295 CNS) 0.201 µM | GI50 (SF-539 CNS) 0.297 µM | GI50 (SK-MEL-5 melanoma) 0.26 µM | GI50 (SR leukemia) 0.0528 µM | GI50 (SW-620 colon) 0.0974 µM | GI50 (U251 CNS) 0.333 µM
7.34 µM: TGI (A498 renal)
18 µM: TGI (NCI-H460 lung)
inactive: GI50 (786-0 renal) 0.536 µM | GI50 (A549 NSCLC) 0.595 µM | GI50 (ACHN renal) 0.857 µM | GI50 (BT-549 breast) 0.848 µM | GI50 (DU-145 prostate) 0.494 µM | GI50 (EKVX NSCLC) 0.941 µM | GI50 (HCC-2998 colon) 1.24 µM | GI50 (HOP-62 NSCLC) 0.578 µM | GI50 (HOP-92 NSCLC) 0.908 µM | GI50 (IGROV1 ovarian) 0.804 µM | GI50 (LOX IMVI melanoma) 1.03 µM | GI50 (MALME-3M melanoma) 1.36 µM | GI50 (MDA-MB-231 breast) 0.877 µM | GI50 (MOLT-4 leukemia) 0.504 µM | GI50 (NCI-H226 lung) 2.94 µM | GI50 (NCI-H23 lung) 0.696 µM | GI50 (OVCAR-4 ovarian) 1.17 µM | GI50 (OVCAR-5 ovarian) 0.997 µM | GI50 (OVCAR-8 ovarian) 0.499 µM | GI50 (SF-268 CNS) 1.67 µM | GI50 (SK-MEL-2 melanoma) 0.527 µM | GI50 (SK-MEL-28 melanoma) 5.25 µM | GI50 (SK-OV-3 ovarian) 0.594 µM | GI50 (SN12C renal) 1.08 µM | GI50 (SNB-19 CNS) 0.601 µM | GI50 (T-47D breast) 0.626 µM | GI50 (TK-10 renal) 12.2 µM | GI50 (UACC-257 melanoma) 1.97 µM | GI50 (UACC-62 melanoma) 0.499 µM | GI50 (UO-31 renal) 0.665 µM
70.9 µM: TGI (MDA-MB-231 breast)

O=c1cc(-c2ccccc2)[nH]c2cccc(S)c12
0.236 µM: TGI (NCI/ADR-RES ovarian)
0.469 µM: TGI (RXF 393 renal)
26.1 µM: TGI (SK-OV-3 ovarian)
19.2 µM: TGI (COLO 205 colon)
4 µM: TGI (HCC-2998 colon)
0.594 µM: TGI (SF-539 CNS)
> 100 µM: TGI (786-0 renal) | TGI (A549 NSCLC) | TGI (ACHN renal) | TGI (BT-549 breast) | TGI (CCRF-CEM leukemia) | TGI (DU-145 prostate) | TGI (EKVX NSCLC) | TGI (HCT-116 colon) | TGI (HCT-15 colon) | TGI (HL-60(TB) leukemia) | TGI (HOP-62 NSCLC) | TGI (HOP-92 NSCLC) | TGI (HS 578T breast) | TGI (IGROV1 ovarian) | TGI (K-562 leukemia) | TGI (KM12 colon) | TGI (M14 melanoma) | TGI (MALME-3M melanoma) | TGI (MCF7 breast) | TGI (MOLT-4 leukemia) | TGI (NCI-H23 lung) | TGI (NCI-H460 lung) | TGI (OVCAR-3 ovarian) | TGI (OVCAR-4 ovarian) | TGI (OVCAR-5 ovarian) | TGI (PC-3 prostate) | TGI (RPMI-8226 leukemia) | TGI (SF-268 CNS) | TGI (SK-MEL-28 melanoma) | TGI (SK-MEL-5 melanoma) | TGI (SN12C renal) | TGI (SNB-19 CNS) | TGI (SR leukemia) | TGI (SW-620 colon) | TGI (T-47D breast) | TGI (UACC-257 melanoma) | TGI (UACC-62 melanoma)
2.37 µM: TGI (OVCAR-8 ovarian)
98.7 µM: TGI (NCI-H226 lung)
0.389 µM: TGI (SF-295 CNS)
11.4 µM: TGI (U251 CNS)
